Here are results for 1 compound from US5162361A, “Method of treating diseases associated with elevated levels of interleukin 1” (priority 1990, dated 1992).

Data set [1] has as its system IL-1α. Put plainly: Western blot analysis of secreted protein (IL-1α). Format: cell-based, rat. The conditions noted are these: LPS, FIG. 1b. For orientation: A western blot detects proteins with antibodies after separation by electrophoresis.
The test system of data set [2] is human IL-1. As to the kind of experiment: IL-1 secretion by human alveolar macrophages (enzyme linked immunosorbant assay). The conditions noted are these: 10^-5 M. The class given is cell-based. Here is the method:
(§1) Dose response studies were performed to determine the molar concentration at which pentamidine reduced viability in normal rat macrophages. […] This blockage was shown using an enzyme linked immunosorbant assay with specific antibody to IL-1β.
Four normal healthy human volunteers were lavaged and their pulmonary macrophages cultured in vitro in the presence of 10^-5 M pentamidine and the IL-1 inducer, lipopolysaccharide. Following 24 hours of incubation, the supernatant fluid was collected and stored at -20° C. for IL-1 determination using an enzyme linked immunosorbant assay with specific antibody to human IL-1.

The subject of data set [3] is Ia antigen. As to the kind of experiment: Ia antigen expression on alveolar macrophages (flow cytometry). The class given is cell-based, rat. Here is the method: ^a Ia antigen expression - Alveolar macrophages were diluted to 1×10^6 cells/ml in RPMI (supplemented as above). Three mls. (3×10^6 cells) were added to sterile teflon vials and treated with pentamidine or dexamethasone for 4 hours at 37° C., 5% CO2, followed by the addition of rat γ IFN at 100 U/ml. Cells were incubated for 18 hours, pelleted, counted and adjusted to 1×10^7 cells/ml in ice cold standard buffer (HBSS, 0.1% Na azide, 1% BSA).
Aliquots of cells (50 μl in quadruplicate) from the various treatment groups were plated to a 96 well round bottom plate (Linbro) and incubated for 45 minutes on ice with 50 μl aliquots of one of the following: monoclonal anti-rat OXS (Sera-lab), monoclonal anti-mouse OX6 (Sera-lab), both at 0.5 μg/5×10^5 cells, or HBSS (control). Cells were washed 3× with standard buffer and incubated for 45 minutes on ice, in the dark, with 50 μl of phycoerythrin-labeled goat anti-mouse IGGI (Fisher Biotech) at 1 μg/5×10^5 cells. Cells were washed 3× with standard buffer, resuspended in 0.4 ml of standard buffer and analyzed via flow cytometry.

The subject of data set [4] is Pulmonary alveolar macrophages. As to the kind of experiment: Phagocytosis by pulmonary alveolar macrophages (Fluoresbrite beads, flow cytometry). Format: cell-based, rat. The protocol: One ml aliquots were added to sterile teflon vials (Nalgene) along with pentamidine or dexamethasone (Sigma) as indicated, and incubated for 4 hours at 37° C., 5% CO2. Fluoresbrite carboxylate beads, 1.73 μm (Polysciences) were used to achieve a 100:1 bead to cell ratio and the suspension was incubated for 45 minutes at 37° C., 5% CO2 with gentle agitation. Cell suspensions were then layered over 3 mls. of RPMI/FCS+0.3% BSA, and cells pelleted at 150 xg for 10 minutes. Supernates were discarded and cells resuspended in 1 ml of RPMI/FCS for analysis via flow cytometry. The data presented above is the mean of the percentage of cells taking up one or more beads of triplicate cultures.

For data set [5], the system named is Female B6C3F1 mice. Put plainly: Endotoxemia: hypothermia and survival after LPS. Format: in vivo. The protocol: Female B6C3F1 mice weighing approximately 24 g were dosed with pentamidine (15 mg/kg.; i.v.) at both 24 hours and 1 hour prior to LPS administration (50 mg/kg; i.p.). Temperature response indices (TRI) were determined for the period between time zero and +12 hours in groups of 5 mice. […] Animals used for body temperature measurements were treated identically and on the same day as those animals for which survival was measured, although the survival of these animals is not included in the Table below. Survival data shown in Table 3 is following 24 hours of observation.

The subject of data set [6] is oxazolone induced hypersensitivity. As to the kind of experiment: Ear swelling response to oxazolone (delayed-type hypersensitivity). The class given is in vivo, mice. The conditions noted are these: pentamidine isethionate (heading), epicutaneous at time of oxazolone challenge, FIG. 5. Here is the method: All groups were sensitized with 25 μl of 2.0% oxazolone on day 0 on the shaved dorsal surface of the back. On day 5, each group was treated with 10 μl of pentamidine on each side of the right ear immediately prior to challenge with 10 μl of 0.5% oxazolone on each side of the right ear. The left ear was treated at same time with the oxazolone vehicle (4:1 acetone:olive oil) and in the same manner as the challenged ear. Ear thickness was determined before, 24 and 48 hours after challenge. The concentration of pentamidine for each group was as follows:
Group 1--80 μg/ear pentamidine
Group 2--40 μg/ear pentamidine
Group 3--20 μg/ear pentamidine
Group 4--10 μg/ear pentamidine
Group 5--5 μg/ear pentamidine
Group 6--no treatment (oxazolone positive control)

Data set [7] relates to alveolar macrophage. As to the kind of experiment: Alveolar macrophage viability following 24 hour exposure. The class given is cell-based. The note with it: concentrations ≤10^-5 M; normal rat macrophages. The protocol:
as §1
Alveolar macrophage viability was assessed by incubating the cells in RPMI 1640 media with 10% fetal calf serum in the presence of pentamidine at the indicated concentrations. Twenty-four hours later the cells were analyzed for viability using ethidium bromide staining. A minimum of 10,000 cells were analyzed by flow cytometry on a FACSCAN analyzer.
These observations have been confirmed using microscopic analysis via trypan blue dye exclusion.

The test system of data set [8] is tumor necrosis factor. Put plainly: Tumor necrosis factor secretion by rat macrophages. The class given is cell-based. The conditions noted are these: pentamidine 10^-5 M, rat macrophages (control 82 units/ml). The protocol:
It has also been observed that pentamidine (10^-5 M) blocks the secretion of tumor necrosis factor in rat macrophages (42 units/ml - pentamidine vs. 82 units/ml - control), as well as tumor necrosis factor and IL-6 in human macrophages, where at a concentration of 10^-5 M pentamidine, tumor necrosis factor and IL-6 secretion are suppressed >50%. These additional cytokines are also very influential mediators in inflammatory diseases.
In vitro studies were performed by taking alveolar macrophages from normal healthy rat lungs and culturing them in the presence of an imidazoline with the inducer lipopolysaccharide for 24 hours. The standard bioassay for IL-1 was performed (see above).

“Also recorded” adds a separate entry of the source.

Consider `N=C(N)c1ccc(OCCCCCOc2ccc(C(=N)N)cc2)cc1` [Pentamidine, 1,5-bis(4-amidinophenoxy)pentane], for which, in data set [1], the “Secreted IL-1 by Western blot” value was “nearly complete block in the release of the intracellular IL-1; also recorded: lack of a lipopolysaccharide inducible IL-1 band”. Further, the “IL-1 (IL-1β) secretion by human macrophages” value in data set [2] (ELISA with specific antibody to IL-1β, result in words) is “blocks IL-1 secretion; also recorded: decreased IL-1β release by human macrophages”. Besides, in data set [2] (Macrophage, 24 h, cumulative over four human subjects, vs. untreated macrophages of same individual, read-out: Suppression in the amount of IL-1 secreted), the inhibition at 10 µM was 62.1%. Moreover, the “Ia Antigen Expression (MFI)” value in data set [3] (Pentamidine 10^-5 M (control 459)) is given as 464 MFI. Further, the “Mean concentration of Ia molecules on Ia positive cells” value in data set [3] (result in words) was “nor did it influence the mean concentration of Ia molecules on Ia positive cells”. Moreover, the “Phagocytic Index” value in data set [4] (Pentamidine 10^-5 M (control 32)) amounted to 32%. For the same compound, the “Phagocytic capacity of alveolar macrophages” value in data set [4] (result in words) is reported as “did not modulate the phagocytic capacity of alveolar macrophages”. The “Temperature response index (TRI)” value in data set [5] (15 mg/kg i.v. 24 h and 1 h prior to LPS 50 mg/kg i.p. (LPS alone -13.3), P < 0.01) was -8.3 Δ°C; in data set [5] (15 mg/kg i.v. at 24 h and 1 h, no LPS (vehicle -1.3)), -2.4 Δ°C. For the same compound, the Survival in data set [5] (15 mg/kg i.v. + LPS, 24 hours of observation (LPS alone 0/10), P < 0.01) is 10/10; in data set [5] (15 mg/kg i.v., no LPS, 24 hours of observation (vehicle 10/10)), 9/9. In addition, the “Mean rectal temperature at 12 hours (Tr12hr)” value in data set [5] (15 mg/kg i.v. + LPS, ± SE (LPS alone 25.3 ± 0.5), P < 0.01) was 29.0 ± 2.2 °C; in data set [5] (15 mg/kg i.v., no LPS, ± SE (vehicle 36.9 ± 1.4)) it was 35.0 ± 2.9 °C. For the same compound, the “Mean rectal temperature at time zero (Tr0)” value in data set [5] (15 mg/kg i.v. + LPS, ± SE (LPS alone 38.6 ± 0.4)) worked out at 37.3 ± 0.4 °C; in data set [5] (15 mg/kg i.v., no LPS, ± SE (vehicle 38.2 ± 0.1)), 37.4 ± 0.6 °C. Besides, the “Hypersensitivity response as measured by ear swelling” value in data set [6] is “statistically significant (p<0.001) reduction in the hypersensitivity response”. In data set [7], the “Loss in cell viability” value is on record as “No significant loss in cell viability”. Besides, the “Tumor necrosis factor secretion” value in data set [8] is recorded as 42 units/ml.
